Values after ≈ are worked out from the molar mass of the structure shown.
Assays:
Experiment in all cases: in vitro antibacterial evaluation, MIC by broth dilution
Format in all cases: cell-based
Enterococcus sp. = details: broth dilution, 18 hours at 35° C.
Summary of the method: (§1)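 Following National Committee for Clinical Laboratory Standards recommendations (M7-A2), susceptibility was measured by dilution in Muller-Hinton II […]. Bacteria were seeded at 5×10^5 CFU/mL against compound concentrations from 64 down to 0.06 μg/mL.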

Streptococcus sp. = details: broth dilution, 18 hours at 35° C.
Summary of the method: as §1

Staphylococcus sp. = details: broth dilution, 18 hours at 35° C.
Summary of the method: as §1

Escherichia coli = details: 18 hours at 35° C.
Summary of the method: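 Step 1: dilute antibiotic across 64-0.06 μg/mL in Muller-Hinton II […]. Step 2: inoculate at 5×10^5 CFU/mL.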

Q: `CC(C)CC(=O)OC1C(O)C(CO)OC(OC2C(CO)OC(Oc3ccc(CC4NC(=O)C(C(C)c5cccs5)NC(=O)CNC(=O)C(CO)NC(=O)C(C(O)C5CNC(=N)N5C5OC(CO)C(O)C(O)C5O)NC(=O)C(C(O)C5CNC(=N)N5)NC4=O)cc3)C(O)C2O)C1O` (stereo not drawn) [Example 265b, Cyclo[3-(2-thienyl)-2-aminobutanoyl-O-[4-O-[3-O-(3-methylbutanoyl)hexopyranosyl]hexoipyranosyl]tyrosyl-3-(2-iminoimidazolidin-4-yl)seryl-3-(3-hexolpyranosyl-2-iminoimidazolidin-4-yl)serylserylglycyl]] was tested. Which “MIC Enterococcus avium (GC 4558)” value (Enterococcus sp.; Enterococcus avium (GC 4558)) did it give?
A: 64 µg/mL (≈ 46.2 µM)

Q: And the “MIC Enterococcus faecalis (ATCC 29212)” value (Enterococcus sp.; Enterococcus faecalis (ATCC 29212))?
A: 64 µg/mL (≈ 46.2 µM)

Q: And the “MIC Enterococcus faecalis (GC 4553)” value (Enterococcus sp.; Enterococcus faecalis (GC 4553))?
A: 64 µg/mL (≈ 46.2 µM)

Q: What about the “MIC Enterococcus faecalis (GC 4554)” value (Enterococcus sp.; Enterococcus faecalis (GC 4554)) of the same compound?
A: >64 µg/mL

Q: What about the “MIC Enterococcus faecium (GC 2243)” value (Enterococcus sp.; Enterococcus faecium (GC 2243)) of the same compound?
A: 64 µg/mL (≈ 46.2 µM)

Q: And the “MIC Enterococcus faecium (GC 4556)” value (Enterococcus sp.; Enterococcus faecium (GC 4556))?
A: 64 µg/mL (≈ 46.2 µM)

Q: What about the “MIC Enterococcus faecium (GC 4557)” value (Enterococcus sp.; Enterococcus faecium (GC 4557)) of the same compound?
A: 8 µg/mL (≈ 5.77 µM)

Q: And the “MIC Enterococcus faecalis (ATCC 29212)” value (Enterococcus sp.; strain ATCC 29212)?
A: 64 µg/mL (≈ 46.2 µM)

Q: And the “MIC Enterococcus faecalis (GC 2242)” value (Enterococcus sp.; strain GC 2242)?
A: 64 µg/mL (≈ 46.2 µM)

Q: What about the “MIC Enterococcus faecium (GC 2243)” value (Enterococcus sp.; strain GC 2243) of the same compound?
A: 64 µg/mL (≈ 46.2 µM)

Q: And the “MIC Enterococcus faecalis (GC 4552)” value (Enterococcus sp.; strain GC 4552)?
A: 64 µg/mL (≈ 46.2 µM)

Q: And the “MIC Enterococcus faecalis (GC 4553)” value (Enterococcus sp.; strain GC 4553)?
A: 64 µg/mL (≈ 46.2 µM)

Q: And the “MIC Enterococcus faecalis (GC 4554)” value (Enterococcus sp.; strain GC 4554)?
A: >64 µg/mL

Q: What about the “MIC Enterococcus faecium (GC 4556)” value (Enterococcus sp.; strain GC 4556) of the same compound?
A: 64 µg/mL (≈ 46.2 µM)

Q: What about the “MIC Enterococcus faecium (GC 4557)” value (Enterococcus sp.; strain GC 4557) of the same compound?
A: 8 µg/mL (≈ 5.77 µM)

Q: And the “MIC Enterococcus avium (GC 4558)” value (Enterococcus sp.; strain GC 4558)?
A: 64 µg/mL (≈ 46.2 µM)

Q: What about the “MIC Streptococcus agalactiae (GC 4564)” value (Streptococcus sp.; strain GC 4564) of the same compound?
A: 8 µg/mL (≈ 5.77 µM)

Q: And the “MIC Streptococcus pyogenes (ID-3187)” value (Streptococcus sp.; strain ID-3187)?
A: 4 µg/mL (≈ 2.89 µM)

Q: What about the “MIC Coagulase Negative Staphylococcus (GC 4547)” value (Staphylococcus sp.) of the same compound?
A: 8 µg/mL (≈ 5.77 µM)

Q: What about the “MIC Coagulase Negative Staphylococcus (GC 4548)” value (Staphylococcus sp.) of the same compound?
A: 4 µg/mL (≈ 2.89 µM)

Q: And the “MIC Coagulase Negative Staphylococcus (GC 4549)” value (Staphylococcus sp.)?
A: 4 µg/mL (≈ 2.89 µM)

Q: And the “MIC Coagulase Negative Staphylococcus (GC 4551)” value (Staphylococcus sp.)?
A: 8 µg/mL (≈ 5.77 µM)

Q: What about the “MIC Staphylococcus aureus (ATCC 29213)” value (Staphylococcus sp.) of the same compound?
A: 16 µg/mL (≈ 11.5 µM)

Q: And the “MIC Staphylococcus aureus (GC 1131)” value (Staphylococcus sp.)?
A: 32 µg/mL (≈ 23.1 µM)

Q: What about the “MIC Staphylococcus aureus (GC 4541)” value (Staphylococcus sp.) of the same compound?
A: 8 µg/mL (≈ 5.77 µM)

Q: And the “MIC Staphylococcus aureus (GC 4542)” value (Staphylococcus sp.)?
A: 8 µg/mL (≈ 5.77 µM)

Q: What about the “MIC Staphylococcus aureus (GC 4544)” value (Staphylococcus sp.) of the same compound?
A: 8 µg/mL (≈ 5.77 µM)

Q: What about the “MIC Staphylococcus aureus (GC 4545)” value (Staphylococcus sp.) of the same compound?
A: 8 µg/mL (≈ 5.77 µM)

Q: What about the “MIC Staphylococcus aureus-SMITH (GC 4543)” value (Staphylococcus sp.) of the same compound?
A: 8 µg/mL (≈ 5.77 µM)

Q: What about the “MIC Staphylococcus haemolyticus (GC 4546)” value (Staphylococcus sp.) of the same compound?
A: 8 µg/mL (≈ 5.77 µM)

Q: What about the “MIC Staphylococcus aureus (ATCC 29213)” value (Staphylococcus sp.; strain ATCC 29213) of the same compound?
A: 16 µg/mL (≈ 11.5 µM)

Q: What about the “MIC Staphylococcus aureus (GC 1131)” value (Staphylococcus sp.; strain GC 1131) of the same compound?
A: 32 µg/mL (≈ 23.1 µM)

Q: And the “MIC Staphylococcus aureus (GC 4541)” value (Staphylococcus sp.; strain GC 4541)?
A: 8 µg/mL (≈ 5.77 µM)

Q: And the “MIC Staphylococcus aureus (GC 4542)” value (Staphylococcus sp.; strain GC 4542)?
A: 8 µg/mL (≈ 5.77 µM)

Q: What about the “MIC Staphylococcus aureus (GC 4544)” value (Staphylococcus sp.; strain GC 4544) of the same compound?
A: 8 µg/mL (≈ 5.77 µM)

Q: What about the “MIC Staphylococcus aureus (GC 4545)” value (Staphylococcus sp.; strain GC 4545) of the same compound?
A: 8 µg/mL (≈ 5.77 µM)

Q: What about the “MIC Staphylococcus haemolyticus (GC 4546)” value (Staphylococcus sp.; strain GC 4546) of the same compound?
A: 8 µg/mL (≈ 5.77 µM)

Q: And the “MIC Coagulase Negative Staphylococcus (GC 4547)” value (Staphylococcus sp.; strain GC 4547)?
A: 8 µg/mL (≈ 5.77 µM)

Q: What about the “MIC Coagulase Negative Staphylococcus (GC 4548)” value (Staphylococcus sp.; strain GC 4548) of the same compound?
A: 4 µg/mL (≈ 2.89 µM)

Q: And the “MIC Coagulase Negative Staphylococcus (GC 4549)” value (Staphylococcus sp.; strain GC 4549)?
A: 4 µg/mL (≈ 2.89 µM)

Q: And the “MIC Coagulase Negative Staphylococcus (GC 4551)” value (Staphylococcus sp.; strain GC 4551)?
A: 8 µg/mL (≈ 5.77 µM)

Q: What about the “MIC Staphylococcus aureus-SMITH (GC 4543)” value (Staphylococcus sp.; strain SMITH GC 4543) of the same compound?
A: 8 µg/mL (≈ 5.77 µM)

Q: What about the “MIC Escherichia coli (ATCC 25922)” value (Escherichia coli; Escherichia coli (ATCC 25922)) of the same compound?
A: >64 µg/mL

Q: What about the “MIC Escherichia coli (GC 4559)” value (Escherichia coli; Escherichia coli (GC 4559)) of the same compound?
A: 64 µg/mL (≈ 46.2 µM)

Q: And the “MIC Escherichia coli (GC 4560)” value (Escherichia coli; Escherichia coli (GC 4560))?
A: 4 µg/mL (≈ 2.89 µM)
